PMC11808397, “Development of selective nanomolar cyclic peptide ligands as GBA1 enzyme stabilisers” (RSC Chemical Biology, 2025)
Positions of bridges follow the written chain, without caps; N, C: chain ends. Non-standard residues stand in square brackets, D forms with d. Residues, ends and D or L forms follow the SMILES beside them.

biological target: T1, GBA1 in fibroblast lysates (Homo sapiens, UniProt P04062); assay: GBA1 inhibition in lysates of fibroblasts treated with peptides; format: cell-based; settings: cells treated with peptides at increasing concentrations for 16 h, washed with PBS and homogenized; 4-MU assay
T1 construct: host or cells: human dermal fibroblasts
T1 sequence (P04062 40-536): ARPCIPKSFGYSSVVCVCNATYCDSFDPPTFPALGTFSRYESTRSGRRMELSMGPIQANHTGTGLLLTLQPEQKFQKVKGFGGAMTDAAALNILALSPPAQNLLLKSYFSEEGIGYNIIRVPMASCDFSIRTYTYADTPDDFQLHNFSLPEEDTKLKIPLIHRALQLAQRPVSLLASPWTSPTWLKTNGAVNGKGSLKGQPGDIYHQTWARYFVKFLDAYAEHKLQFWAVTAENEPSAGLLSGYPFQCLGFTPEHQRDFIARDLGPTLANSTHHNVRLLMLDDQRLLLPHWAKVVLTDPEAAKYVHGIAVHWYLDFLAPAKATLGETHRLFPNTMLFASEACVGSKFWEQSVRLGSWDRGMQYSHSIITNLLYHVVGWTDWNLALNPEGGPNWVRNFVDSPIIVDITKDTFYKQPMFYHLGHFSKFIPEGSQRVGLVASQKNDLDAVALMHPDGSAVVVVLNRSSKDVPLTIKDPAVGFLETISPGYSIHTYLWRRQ
Experimental: We further investigated GBA1 inhibition in cells. Human dermal fibroblasts were initially incubated with peptide concentrations ranging from 0.1 μM (from 0.001 μM for L4, D1 and D12) to 100 μM of each cyclic peptide for […]. […] To further confirm the inability of these peptides to cross the cell membrane, we conducted in situ competitive activity-based protein profiling (cABPP) experiments using RAW 264.7 monocyte/macrophage-like cells. […] RAW 264.7 cells were then treated with increasing concentrations of cyclic peptides (0, 0.1, 1, 10, and 100 μM) for 4 hours, followed by exposure to a cell-penetrant Bodipy red broad spectrum GBA activity-based probe (ABP), JJB75[58] at 10 nM for 2 hours (Fig. S5 for chemical structures, ESI ^†). […] This cABPP experiment further confirms that the peptides are unable to cross the cell membrane (Fig. S6, ESI ^†).
Selective Cyclic Peptide Ligands as GBA1 Stabilizers Katzy et al. […]
Table S1. IC50 values for GBA1 inhibition in fibroblast lysates. Cells were treated with the peptides at increasing concentrations for 16 h, washed with PBS and homogenized. Reported values are mean ± standard deviation from 3 technical triplicates. N.D.: not determined.
Peptide GBA1 in fibroblast lysates
(1 picture or pasted object on this page, not shown here) […]
2.6. In situ cell studies
Human fibroblasts (Cambrex-Lonza CC-2511) were cultured in complete DMEM/F12 growth medium supplemented with 10% (v/v) foetal calf serum and 0.1 % (w/v) penicillin/streptomycin at 37 °C and 5% CO2. Cells were seeded in 12-well plates during passage and the incubations were started when cells were 80% - 100% confluent. Peptides were added in 500 µL medium (10 and 50 µM final concentration) and incubated overnight. After incubation cells were washed three times with cold PBS and harvested in 30 µL lysis buffer (25 mM KPi, pH 6,5 supplemented with 0.1% Triton-X 100 (v/v) and protease inhibitor). Lysates were frozen at -80 °C until use. GlcCer and GlcSph lipids were quantified as described below. In parallel, enzyme activity in cell lysates was measured using 3.7 mM 4-methylumbeliferone (4MU)-β-D-glucopyranoside in 150 mM McIlvaine buffer pH 5.2 supplemented with 0.1% bovine serum albumin (BSA) (w/v), 0.1% Triton X-100 (v/v), and 0.2% sodium taurocholate (w/v) as described above (see Table S1). […]
PBS and harvested in ice cold water. Lysates were kept at -80 °C until extraction.
2.7. 2.5. GlcCer and GlcSph lipid analysis
Levels of GlcCer and GlcSph were determined with a modified acidic Bligh & Dyer extraction (Figure 2 and S5).7 Briefly, after addition of internal standards (C17-dh-Ceramide and 13C5-Glucosylsphingosine), lipids were separated in an organic and an aqueous phase. The separated phases were dried under N2 or in a concentrator. The dried organic lower phase was reconstituted in 0.1 M NaOH in MeOH and underwent microwave-assisted deacylation. After neutralization, the samples were dried. Both phases were further extracted and desalted with equal amounts of water and butanol. The butanol phases were taken up to dryness and the lipids were dissolved in MeOH and transferred to MS vials for analysis in a LC-MS/MS system as described previously.7
2.8. Thermostability assays in rhGBA (Cerezyme)
Varying concentrations of peptides were incubated with 1 µM rhGBA1 in 20 mM HEPES pH 7.0 with 100 mM NaCl, with a final DMSO concentration of 0.5 %, for 2 hours at room temperature. Melting

| IC50 [µM] | Structure (SMILES) |
| --- | --- |
| 0.898 | CC[C@H](C)[C@H](NC(=O)[C@H](CCCNC(=N)N)NC(=O)[C@@H]1CSCC(=O)N[C@@H](Cc2ccc(O)cc2)C(=O)N[C@@H](C)C(=O)N[C@@H](Cc2ccc(O)cc2)C(=O)N[C@@H](Cc2c[nH]c3ccccc23)C(=O)N[C@@H](Cc2c[nH]c3ccccc23)C(=O)N[C@@H](CC(C)C)C(=O)N1)C(=O)N1CCC[C@H]1C(=O)N[C@@H](Cc1c[nH]c2ccccc12)C(=O)N[C@@H](CC(C)C)C(=O)N[C@@H](CO)C(=O)N[C@H](C(N)=O)C(C)C [L2] ({CH2CO}-YAYWWLCRIPWLSV-NH2; thioether N-7) |
| 22.3 | CC[C@H](C)[C@@H]1NC(=O)[C@H](Cc2ccc(O)cc2)NC(=O)CSC[C@@H](C(N)=O)NC(=O)[C@H](Cc2c[nH]c3ccccc23)NC(=O)[C@H](CCC(N)=O)NC(=O)[C@H]([C@@H](C)CC)NC(=O)[C@H]([C@@H](C)CC)NC(=O)[C@@H]2CCCN2C(=O)[C@H](C(C)C)NC(=O)[C@H](Cc2ccc(O)cc2)NC(=O)[C@H](Cc2c[nH]c3ccccc23)NC(=O)[C@H](CO)NC1=O [L6] ({CH2CO}-YISWYVPIIQWC-NH2; thioether N-12) |
| 0.067 | CC(C)C[C@@H]1NC(=O)CNC(=O)[C@H](Cc2ccccc2)NC(=O)[C@H](CC(C)C)NC(=O)[C@@H]2CCCN2C(=O)[C@H](Cc2ccc(O)cc2)NC(=O)CSC[C@@H](C(=O)N2CCC[C@H]2C(=O)N[C@@H](CC(N)=O)C(=O)N[C@@H](Cc2c[nH]c3ccccc23)C(=O)N[C@@H](Cc2ccccc2)C(=O)N2CCC[C@H]2C(=O)N[C@@H](Cc2ccc(O)cc2)C(=O)N[C@@H](CCC(N)=O)C(=O)N[C@@H](CS)C(N)=O)NC(=O)[C@H](CO)NC(=O)[C@H](Cc2ccccc2)NC1=O [L4] ({CH2CO}-YPLFGLFSCPNWFPYQC-NH2; thioether N-9) |
| 39.7 | CC[C@H](C)[C@@H]1NC(=O)[C@H](CO)NC(=O)[C@H](CS)NC(=O)CNC(=O)CNC(=O)[C@H](CC(C)C)NC(=O)[C@H](Cc2ccc(O)cc2)NC(=O)[C@H](C(C)C)NC(=O)[C@H](CC(C)C)NC(=O)[C@H](CCCNC(=N)N)NC(=O)[C@@H]2CCCN2C(=O)[C@H](Cc2ccc(O)cc2)NC(=O)CSC[C@@H](C(N)=O)NC(=O)[C@H](CCC(=O)O)NC(=O)[C@H](CC(C)C)NC(=O)[C@H](CC(C)C)NC1=O [L1] ({CH2CO}-YPRLVYLGGCSILLEC-NH2; thioether N-16) |

The remaining lines, values behind:

| Structure (SMILES) | IC50 [µM] |
| --- | --- |
| CC(C)C[C@H](NC(=O)[C@@H](NC(=O)[C@H](CCCNC(=N)N)NC(=O)[C@@H]1CSCC(=O)N[C@H](Cc2ccc(O)cc2)C(=O)N[C@@H]([C@@H](C)O)C(=O)N2CCC[C@H]2C(=O)NCC(=O)N[C@@H](Cc2ccc(O)cc2)C(=O)N[C@@H](C(C)C)C(=O)N[C@@H](Cc2ccc(O)cc2)C(=O)N1)C(C)C)C(=O)N[C@@H](CCCCN)C(=O)N[C@@H](Cc1ccc(O)cc1)C(=O)N[C@@H](CS)C(N)=O [D8] ({CH2CO}-[dY]TPGYVYCRVLKYC-NH2; thioether N-8) | 5.16 |
| CC[C@H](C)[C@H](NC(=O)[C@H](CC(C)C)NC(=O)[C@H](Cc1ccc(O)cc1)NC(=O)[C@H](Cc1ccc(O)cc1)NC(=O)[C@@H]1CSCC(=O)N[C@H](Cc2ccc(O)cc2)C(=O)N[C@@H](CCCNC(=N)N)C(=O)N[C@@H](C(C)C)C(=O)N1)C(=O)N[C@H](C(=O)N[C@H](C(=O)N[C@@H](CC(C)C)C(=O)N[C@@H](CC(=O)O)C(=O)N[C@@H](CS)C(N)=O)C(C)C)[C@@H](C)O [D1] ({CH2CO}-[dY]RVCYYLITVLDC-NH2; thioether N-4) | 0.44 |
| CC(C)C[C@@H]1NC(=O)CNC(=O)[C@H](CC(C)C)NC(=O)[C@@H](Cc2ccc(O)cc2)NC(=O)CSC[C@@H](C(N)=O)NC(=O)[C@H](CO)NC(=O)[C@H](CCCCN)NC(=O)[C@H](CC(C)C)NC(=O)[C@H](Cc2ccccc2)NC(=O)[C@H](CCCNC(=N)N)NC(=O)[C@H](Cc2ccc(O)cc2)NC(=O)[C@H](Cc2c[nH]c3ccccc23)NC1=O [D12] ({CH2CO}-[dY]LGLWYRFLKSC-NH2; thioether N-12) | 0.334 |
